From patent US8440794B2, “Peptide sequences, their branched form and use thereof for antimicrobial applications” (Universita' Degli Studi di Siena, priority 2008, dated 2013)
Values after ≈ are worked out from the molar mass of the structure shown. Where a SMILES comes first, the peptide text is derived from it. Bridges are numbered along the chain shown (N, C = ends). Roman numbers before positions name the chains, in order. [ ]: non-standard residue; d: D form. βAla = NCCC(=O)O

How the values were obtained:
human erythrocytes = format: cell-based
Method: FIG. 2. Percentage of haemolysis provoked by tetra-branched M33 peptide incubated 3 or 24 hours with human red blood cells.
Haemolysis of fresh human erythrocytes was determined using the method of Parpart, summarized as follows. A calibration curve was constructed by suspending fresh human erythrocytes in phosphate buffer (pH 7.4, 110 mM sodium phosphate) with various concentrations of NaCl and incubated for 30 min at room temperature. Samples were centrifuged at 500×g for 5 minutes, and haemoglobin release was monitored by measuring the absorbance of supernatants at 540 nm. The absorbance obtained with 0.1% NaCl corresponded to 100% lysis and that with 1% NaCl, to 0% lysis. Peptides dissolved in PBS were added to human erythrocyte solution at several concentrations. The resulting suspension was incubated separately at 37° C. for 2 h and 24 h. Release of hemoglobin was monitored by measuring the absorbance of the suspernatant at 540 nm after centrifuging and haemolysis percentage was calculated using the calibration curve.

E. coli W03BG0025 = format: cell-based, Escherichia coli; conditions: W03BG0025, 24 h
Method: (§1) M33, […], M35 and M36 MICs were determined against strains of several bacterial species, including Gram-negative pathogens and also Staphylococcus aureus (Table 1). MICs in the micromolar range were observed against several Gram-negatives including Pseudomonas aeruginosa, Acinetobacter baumannii and most Enterobacteriaceae, with the exception of Proteus mirabilis, Serratia marcescens and Burkholderia cepacia. Activity of peptides was retained against MDR strains with various resistance mechanisms (such as extended-spectrum beta-lactamases and carbapenemases), including MDR P. aeruginosa strains from CF patients. Antimicrobial profile of M33, […] and potency were overall similar to those of polymyxin B, although M33, M34, M35 and M36 also appeared to have some activity against S. aureus (Table 1).

[1] = test system: P. aeruginosa SC-BGr12-02; format: cell-based, Pseudomonas aeruginosa; conditions: SC-BGr12-02, 24 h
Method: as §1

P. aeruginosa PAO-1 = format: cell-based, Pseudomonas aeruginosa; conditions: PAO-1, 24 h
Method: as §1

[2] = test system: P. aeruginosa SC-VMr04-05; format: cell-based, Pseudomonas aeruginosa; conditions: SC-VMr04-05, 24 h
Method: as §1

[3] = test system: P. aeruginosa SC-DMr05-04; format: cell-based, Pseudomonas aeruginosa; conditions: SC-DMr05-04, 24 h
Method: as §1

P. aeruginosa AV65 = format: cell-based, Pseudomonas aeruginosa; conditions: AV65, 24 h
Method: as §1

[4] = test system: P. aeruginosa SC-MDm03-02; format: cell-based, Pseudomonas aeruginosa; conditions: SC-MDm03-02, 24 h
Method: as §1

P. aeruginosa VR-143/97 = format: cell-based, Pseudomonas aeruginosa; conditions: VR-143/97, 24 h
Method: as §1

P. aeruginosa EF-OBG6-1 = format: cell-based, Pseudomonas aeruginosa; conditions: EF-OBG6-1, 24 h
Method: as §1

[5] = test system: P. aeruginosa SC-MDr03-06; format: cell-based, Pseudomonas aeruginosa; conditions: SC-MDr03-06, 24 h
Method: as §1

[6] = test system: P. aeruginosa SC-CNm03-07; format: cell-based, Pseudomonas aeruginosa; conditions: SC-CNm03-07, 24 h
Method: as §1

[7] = test system: P. aeruginosa SC-GMm03-05; format: cell-based, Pseudomonas aeruginosa; conditions: SC-GMm03-05, 24 h
Method: as §1

[8] = test system: Serratia marcescens W03BG0003; format: cell-based; conditions: W03BG0003, 24 h
Method: as §1

[9] = test system: Staphylococcus aureus ATCC 29213; format: cell-based; conditions: ATCC 29213, 24 h
Method: as §1

[10] = test system: Proteus mirabilis W03VA1017; format: cell-based; conditions: W03VA1017, 24 h
Method: as §1

[11] = test system: Burkholderia cepacia ORB-99; format: cell-based; conditions: 24 h
Method: as §1

[12] = test system: Klebsiella pneumoniae ATCC 13833; format: cell-based; conditions: ATCC 13833, 24 h
Method: as §1

[13] = test system: Pseudomonas aeruginosa ATCC 27853; format: cell-based; conditions: ATCC 27853, 24 h
Method: as §1

[14] = test system: Acinetobacter baumannii RUH 134; format: cell-based; conditions: RUH 134, 24 h
Method: as §1

[15] = test system: Enterobacter cloacae W03AN0041; format: cell-based; conditions: W03AN0041, 24 h
Method: as §1

[16] = test system: Escherichia coli ATCC 25922; format: cell-based; conditions: ATCC 25922, 24 h
Method: as §1

[17] = test system: Enterobacer aerogenes W03BG0067; format: cell-based; conditions: 24 h
Method: as §1

S. aureus 3851 = format: cell-based, Staphylococcus aureus; conditions: 3851, 24 h
Method: as §1

A. baumannii MR157 = format: cell-based, Acinetobacter baumannii; conditions: MR157, 24 h
Method: as §1

A. baumannii RUH 875 = format: cell-based, Acinetobacter baumannii; conditions: RUH 875, 24 h
Method: as §1

K pneumoniae FIPP-1 = format: cell-based, Klebsiella pneumoniae; conditions: FIPP-1, 24 h
Method: as §1

K pneumoniae C8-27 = format: cell-based, Klebsiella pneumoniae; conditions: C8-27, 24 h
Method: as §1

K pneumoniae 7086042 = format: cell-based, Klebsiella pneumoniae; conditions: 7086042, 24 h
Method: as §1

CC[C@H](C)[C@H](NC(=O)[C@H](CCCNC(=N)N)NC(=O)[C@@H](N)CCCCN)C(=O)N[C@@H](CCCNC(=N)N)C(=O)N[C@H](C(=O)N[C@@H](CCCNC(=N)N)C(=O)N[C@@H](CC(C)C)C(=O)N[C@@H](CO)C(=O)N[C@@H](C)C(=O)NCCCC[C@H](NC(=O)[C@H](C)NC(=O)[C@H](CO)NC(=O)[C@H](CC(C)C)NC(=O)[C@H](CCCNC(=N)N)NC(=O)[C@@H](NC(=O)[C@H](CCCNC(=N)N)NC(=O)[C@@H](NC(=O)[C@H](CCCNC(=N)N)NC(=O)[C@@H](N)CCCCN)[C@@H](C)CC)C(C)C)C(=O)NCCCC[C@H](NC(=O)[C@H](CCCCNC(=O)[C@H](C)NC(=O)[C@H](CO)NC(=O)[C@H](CC(C)C)NC(=O)[C@H](CCCNC(=N)N)NC(=O)[C@@H](NC(=O)[C@H](CCCNC(=N)N)NC(=O)[C@@H](NC(=O)[C@H](CCCNC(=N)N)NC(=O)[C@@H](N)CCCCN)[C@@H](C)CC)C(C)C)NC(=O)[C@H](C)NC(=O)[C@H](CO)NC(=O)[C@H](CC(C)C)NC(=O)[C@H](CCCNC(=N)N)NC(=O)[C@@H](NC(=O)[C@H](CCCNC(=N)N)NC(=O)[C@@H](NC(=O)[C@H](CCCNC(=N)N)NC(=O)[C@@H](N)CCCCN)[C@@H](C)CC)C(C)C)C(=O)NCCC(=O)O)C(C)C [M35, KRIRVRLSA] (I: H-KRIRVRLSAKK[βAla]-OH / II: H-KRIRVRLSAK / III: H-KRIRVRLSA / IV: H-KRIRVRLSA; amide I:10-IV:C, I:11-II:C, II:10-III:C; N-terminus assumed)
Haemolysis of human red blood cells (human erythrocytes): practically negligible haemolysis grade
MIC (E. coli W03BG0025): 1.5 µM (≈ 7.19 µg/mL)
MIC [1]: 1.5 µM (≈ 7.19 µg/mL)
MIC (P. aeruginosa PAO-1): 1.5 µM (≈ 7.19 µg/mL)
MIC [2]: 3 µM (≈ 14.4 µg/mL)
MIC [3]: 1.5 µM (≈ 7.19 µg/mL)
MIC (P. aeruginosa AV65): 1.5 µM (≈ 7.19 µg/mL)
MIC [4]: 3 µM (≈ 14.4 µg/mL)
MIC (P. aeruginosa VR-143/97): 1.5 µM (≈ 7.19 µg/mL)
MIC (P. aeruginosa EF-OBG6-1): 1.5 µM (≈ 7.19 µg/mL)
MIC [5]: 3 µM (≈ 14.4 µg/mL)
MIC [6]: 1.5 µM (≈ 7.19 µg/mL)
MIC [7]: 1.5 µM (≈ 7.19 µg/mL)
MIC [8]: >24 µM
MIC [9]: 6 µM (≈ 28.8 µg/mL)
MIC [10]: >24 µM
MIC [11]: >24 µM
MIC [12]: 3 µM (≈ 14.4 µg/mL)
MIC [13]: 1.5 µM (≈ 7.19 µg/mL)
MIC [14]: 1.5 µM (≈ 7.19 µg/mL)
MIC [15]: 1.5 µM (≈ 7.19 µg/mL)
MIC [16]: 1.5 µM (≈ 7.19 µg/mL)
MIC [17]: 1.5 µM (≈ 7.19 µg/mL)
MIC (S. aureus 3851): 6 µM (≈ 28.8 µg/mL)
MIC (A. baumannii MR157): 3 µM (≈ 14.4 µg/mL)
MIC (A. baumannii RUH 875): 3 µM (≈ 14.4 µg/mL)
MIC (K pneumoniae FIPP-1): 3 µM (≈ 14.4 µg/mL)
MIC (K pneumoniae C8-27): 1.5 µM (≈ 7.19 µg/mL)
MIC (K pneumoniae 7086042): 3 µM (≈ 14.4 µg/mL)
